According to patent US20240000977A1, “METHODS AND KITS FOR DIAGNOSING AND TREATING CANCERS” (Baruch S. Blumberg Institute, priority 2020, published 2024):

How the values were obtained:
[1] = test system: DACH1^−/− 3T3 cells; assay: BrdU / propidium iodide flow cytometry of S-phase cells after WEE1 inhibition; format: cell-based; conditions: 24 h
Description: (§1) DACH1 deficiency was determined to promote accumulation of non-proliferative S-phase cells by WEE1 kinase inhibitors. DACH1^+/+ and DACH1^−/− 3T3 cells were treated for 24 h with Adavosertib at 10 μM, a small molecule inhibitor of the tyrosine kinase WEE1, or with DMSO, as the control (see FIGS. 18A and 18B). Prior to harvest, the 3T3 cells were pulsed with 20 μM BrdU for 30 min at a temperature of 37° C. to enable detection of cells with active DNA replication. After harvesting the 3T3 cells, the 3T3 cells were stained with propidium iodide (DNA content) and an anti-BrdU antibody (Abcam). […] Representative FACS plots are shown (see FIGS. 19A-19E). […] Data is shown as mean±SEM for 4 separate experiments.

[2] = test system: DACH1^+/+ 3T3 cells; assay: as above; format: cell-based; conditions: Wt (DACH1^+/+) 3T3 cells, Adavosertib 10 μM, 24 h, 20 μM BrdU pulse 30 min; mean of 4 experiments
Description: as §1

[3] = test system: SETD2−/− cells; conditions: cited from earlier work
[4] = test system: H3K36me3-deficient tumor xenografts; conditions: cited from earlier work
[5] = test system: L1210 leukemia; conditions: murine L1210 leukemia, single agent; cited from earlier work

Compound | BrdU incorporation upon inhibition of WEE1 kinase ([1]; 10 μM) | non-proliferating S-phase population ([1]; Adavosertib 10 μM, 20 μM BrdU pulse 30 min, mean of 4 experiments) | non-proliferating S-phase population [2] | sensitivity of cells [3] | effect on tumor xenografts [4] | antileukemic effects, agent given alone [5]
C=CCn1c(=O)c2cnc(Nc3ccc(N4CCN(C)CC4)cc3)nc2n1-c1cccc(C(C)(C)O)n1 [Adavosertib] | failed to incorporate the BrdU | 38.3% | 13.8% | hypersensitive | regresses | 
IL-12: IL-12 proteins, cytokine used in chemo-immunotherapy |  |  |  |  |  | moderate antileukemic effects
